Experimental data: ChEMBL document CHEMBL1201862, “PubChem BioAssay data set” (2004)
One block for each compound: values may come before it. Calls of active or inactive are those of the source.

Experiments:
Assay type in all cases: functional
[1] = biological target: Benomyl/methotrexate resistance protein (Candida albicans, UniProt P28873); experiment: CaMdr1 efflux pump inhibitor potency, dose response, singleplex, Cherry Pick1 hits (AID 588608)
[2] = biological target: Multidrug resistance protein CDR1 (Candida albicans, UniProt P43071); experiment: CaCDR1 efflux pump inhibitors in yeast, dose response, S. cerevisiae AD1-8u, singleplex, Cherry Pick1 hits (AID 588606)
[3] = biological target: Multidrug resistance protein CDR2 (Candida albicans (strain SC5314 / ATCC MYA-2876) (Yeast), UniProt P78595); experiment: CaCDR2 efflux pump inhibitors in yeast, dose response, S. cerevisiae AD1-8u, singleplex, Cherry Pick1 hits (AID 588604)
[4] = biological target: Cyclin-dependent kinase 5 (Homo sapiens, UniProt Q00535);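 note: CDK5 measured as one member of a kinase profiling panel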
LIM domain kinase 1 = LIM domain kinase 1 (Homo sapiens, UniProt P53667); experiment: Navigating the Kinome. Panel member name: LIMK1
Chain of LIM domain kinase 1 (P53667 whole entry, the tested form may be a part): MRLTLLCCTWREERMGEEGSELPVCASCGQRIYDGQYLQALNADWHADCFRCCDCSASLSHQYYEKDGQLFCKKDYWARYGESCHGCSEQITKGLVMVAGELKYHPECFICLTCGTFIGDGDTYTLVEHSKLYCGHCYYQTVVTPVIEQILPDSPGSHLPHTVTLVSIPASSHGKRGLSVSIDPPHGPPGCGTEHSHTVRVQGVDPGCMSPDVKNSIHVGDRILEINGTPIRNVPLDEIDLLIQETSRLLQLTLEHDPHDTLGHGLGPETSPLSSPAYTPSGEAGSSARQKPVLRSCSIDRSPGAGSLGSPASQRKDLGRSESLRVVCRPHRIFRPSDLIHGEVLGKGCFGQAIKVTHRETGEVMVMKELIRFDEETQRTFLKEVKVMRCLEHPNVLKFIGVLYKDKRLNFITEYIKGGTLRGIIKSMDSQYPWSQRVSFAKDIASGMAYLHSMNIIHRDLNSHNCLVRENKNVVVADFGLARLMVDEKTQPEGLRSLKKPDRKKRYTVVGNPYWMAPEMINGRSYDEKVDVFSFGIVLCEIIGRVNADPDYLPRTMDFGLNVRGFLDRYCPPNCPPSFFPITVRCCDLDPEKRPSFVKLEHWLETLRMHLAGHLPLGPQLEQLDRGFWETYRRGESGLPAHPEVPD

[5] = biological target: Leukocyte tyrosine kinase receptor (Homo sapiens, UniProt P29376); experiment: Navigating the Kinome. Panel member name: LTK
[6] = biological target: Leucine-rich repeat serine/threonine-protein kinase 2 (Homo sapiens, UniProt Q5S007);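 note: value from a broad kinome-wide panel profiling study in which LRRK2 was one of the kinases tested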
[7] = biological target: Mitogen-activated protein kinase kinase kinase kinase 4 (Homo sapiens, UniProt O95819)
Chain of Mitogen-activated protein kinase kinase kinase kinase 4 (O95819 whole entry): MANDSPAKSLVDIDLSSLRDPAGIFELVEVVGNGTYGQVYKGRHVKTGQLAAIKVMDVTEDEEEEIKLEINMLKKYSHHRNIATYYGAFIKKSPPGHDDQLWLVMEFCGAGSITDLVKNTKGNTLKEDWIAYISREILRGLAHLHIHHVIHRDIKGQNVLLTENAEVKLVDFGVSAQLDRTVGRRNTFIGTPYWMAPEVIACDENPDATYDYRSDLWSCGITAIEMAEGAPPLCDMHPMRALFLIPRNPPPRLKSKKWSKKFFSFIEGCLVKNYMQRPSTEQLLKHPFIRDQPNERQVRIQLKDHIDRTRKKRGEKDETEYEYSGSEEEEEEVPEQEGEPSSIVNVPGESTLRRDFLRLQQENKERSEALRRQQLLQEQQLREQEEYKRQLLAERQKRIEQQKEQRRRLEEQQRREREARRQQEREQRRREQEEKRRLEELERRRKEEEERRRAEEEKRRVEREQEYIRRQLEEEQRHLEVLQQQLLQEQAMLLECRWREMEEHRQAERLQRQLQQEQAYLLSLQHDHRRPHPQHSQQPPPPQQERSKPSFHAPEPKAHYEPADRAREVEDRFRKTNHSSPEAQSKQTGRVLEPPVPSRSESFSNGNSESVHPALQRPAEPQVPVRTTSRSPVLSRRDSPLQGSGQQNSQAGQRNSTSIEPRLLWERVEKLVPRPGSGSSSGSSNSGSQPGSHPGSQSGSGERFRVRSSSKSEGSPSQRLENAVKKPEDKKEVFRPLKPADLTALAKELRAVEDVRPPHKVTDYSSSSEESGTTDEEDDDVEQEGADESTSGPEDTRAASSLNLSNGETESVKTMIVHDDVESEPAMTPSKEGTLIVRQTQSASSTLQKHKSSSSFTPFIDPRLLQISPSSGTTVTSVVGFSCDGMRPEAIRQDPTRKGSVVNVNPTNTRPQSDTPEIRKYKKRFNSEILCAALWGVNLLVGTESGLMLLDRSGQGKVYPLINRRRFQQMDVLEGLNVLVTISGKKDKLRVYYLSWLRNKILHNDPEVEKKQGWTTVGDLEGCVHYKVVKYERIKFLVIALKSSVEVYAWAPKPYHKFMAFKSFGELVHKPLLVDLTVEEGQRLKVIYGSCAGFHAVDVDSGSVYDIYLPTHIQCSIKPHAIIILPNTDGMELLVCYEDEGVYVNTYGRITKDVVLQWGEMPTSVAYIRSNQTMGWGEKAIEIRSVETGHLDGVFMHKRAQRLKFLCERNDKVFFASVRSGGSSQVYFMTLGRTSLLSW

[8] = biological target: Dual specificity protein kinase CLK4 (Homo sapiens, UniProt Q9HAZ1)
[9] = biological target: Cyclin-dependent kinase 7 (Homo sapiens, UniProt P50613);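 note: value comes from a kinome-wide kinase profiling panel in which CDK7 is one member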
[10] = biological target: T1, Serine/threonine-protein kinase Chk1 (Homo sapiens, UniProt O14757);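 note: measured as one member of a kinome-wide kinase profiling panel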
T1 sequence (O14757 whole entry): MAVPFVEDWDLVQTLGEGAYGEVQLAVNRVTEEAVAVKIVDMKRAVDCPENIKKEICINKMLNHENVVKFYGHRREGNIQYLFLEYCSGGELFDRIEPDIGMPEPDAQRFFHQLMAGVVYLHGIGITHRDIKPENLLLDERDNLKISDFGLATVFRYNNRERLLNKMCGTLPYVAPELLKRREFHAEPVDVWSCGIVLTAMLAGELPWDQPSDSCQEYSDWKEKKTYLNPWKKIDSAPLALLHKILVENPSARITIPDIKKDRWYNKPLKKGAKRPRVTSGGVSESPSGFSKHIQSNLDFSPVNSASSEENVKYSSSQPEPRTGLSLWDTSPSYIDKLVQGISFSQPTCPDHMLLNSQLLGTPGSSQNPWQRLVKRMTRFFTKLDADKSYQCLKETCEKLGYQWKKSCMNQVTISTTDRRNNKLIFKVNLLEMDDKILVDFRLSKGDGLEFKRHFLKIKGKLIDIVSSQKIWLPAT

[11] = biological target: Ribosomal protein S6 kinase alpha-3 (Homo sapiens, UniProt P51812);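 note: measured within a kinome-wide profiling panel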
Chain of Ribosomal protein S6 kinase alpha-3 (P51812 whole entry): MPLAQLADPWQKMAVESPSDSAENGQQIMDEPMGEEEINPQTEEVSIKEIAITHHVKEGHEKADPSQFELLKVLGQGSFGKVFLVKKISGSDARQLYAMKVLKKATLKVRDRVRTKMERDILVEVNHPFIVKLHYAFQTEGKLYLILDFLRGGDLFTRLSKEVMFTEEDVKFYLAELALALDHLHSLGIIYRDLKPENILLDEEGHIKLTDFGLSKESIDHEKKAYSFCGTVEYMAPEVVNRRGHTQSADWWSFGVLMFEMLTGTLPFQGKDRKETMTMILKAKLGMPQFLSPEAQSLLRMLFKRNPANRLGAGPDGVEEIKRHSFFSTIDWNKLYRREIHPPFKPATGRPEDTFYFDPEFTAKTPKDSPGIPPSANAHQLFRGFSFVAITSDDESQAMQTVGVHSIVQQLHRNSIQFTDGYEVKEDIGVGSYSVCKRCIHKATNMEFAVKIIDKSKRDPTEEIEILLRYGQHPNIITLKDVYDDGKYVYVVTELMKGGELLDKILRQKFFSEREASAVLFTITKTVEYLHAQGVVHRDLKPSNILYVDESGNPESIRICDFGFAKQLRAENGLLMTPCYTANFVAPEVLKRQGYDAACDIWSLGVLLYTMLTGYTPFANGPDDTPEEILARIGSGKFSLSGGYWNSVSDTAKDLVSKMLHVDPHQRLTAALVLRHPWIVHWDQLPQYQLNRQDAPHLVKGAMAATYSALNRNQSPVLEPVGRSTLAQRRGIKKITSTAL

[12] = biological target: Macrophage colony-stimulating factor 1 receptor (Homo sapiens, UniProt P07333);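 note: value comes from the Navigating the Kinome screening panel, CSF1R member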
[13] = biological target: Vascular endothelial growth factor receptor 2 (Homo sapiens, UniProt P35968)
[14] = biological target: Death-associated protein kinase 3 (Homo sapiens, UniProt O43293);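 note: measured as one member of a kinome-wide profiling panel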
[15] = biological target: Proto-oncogene tyrosine-protein kinase receptor Ret (Homo sapiens, UniProt P07949);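 note: measured within a kinome-wide profiling panel, RET as the panel member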
[16] = biological target: ALK tyrosine kinase receptor (Homo sapiens, UniProt Q9UM73);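 note: ALK tested as one member of a kinase panel screen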
[17] = biological target: T2, Serine/threonine-protein kinase D3 (Homo sapiens, UniProt O94806);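 note: determined within a kinase panel screen, with PRKCN as the panel member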
T2 sequence (O94806 whole entry): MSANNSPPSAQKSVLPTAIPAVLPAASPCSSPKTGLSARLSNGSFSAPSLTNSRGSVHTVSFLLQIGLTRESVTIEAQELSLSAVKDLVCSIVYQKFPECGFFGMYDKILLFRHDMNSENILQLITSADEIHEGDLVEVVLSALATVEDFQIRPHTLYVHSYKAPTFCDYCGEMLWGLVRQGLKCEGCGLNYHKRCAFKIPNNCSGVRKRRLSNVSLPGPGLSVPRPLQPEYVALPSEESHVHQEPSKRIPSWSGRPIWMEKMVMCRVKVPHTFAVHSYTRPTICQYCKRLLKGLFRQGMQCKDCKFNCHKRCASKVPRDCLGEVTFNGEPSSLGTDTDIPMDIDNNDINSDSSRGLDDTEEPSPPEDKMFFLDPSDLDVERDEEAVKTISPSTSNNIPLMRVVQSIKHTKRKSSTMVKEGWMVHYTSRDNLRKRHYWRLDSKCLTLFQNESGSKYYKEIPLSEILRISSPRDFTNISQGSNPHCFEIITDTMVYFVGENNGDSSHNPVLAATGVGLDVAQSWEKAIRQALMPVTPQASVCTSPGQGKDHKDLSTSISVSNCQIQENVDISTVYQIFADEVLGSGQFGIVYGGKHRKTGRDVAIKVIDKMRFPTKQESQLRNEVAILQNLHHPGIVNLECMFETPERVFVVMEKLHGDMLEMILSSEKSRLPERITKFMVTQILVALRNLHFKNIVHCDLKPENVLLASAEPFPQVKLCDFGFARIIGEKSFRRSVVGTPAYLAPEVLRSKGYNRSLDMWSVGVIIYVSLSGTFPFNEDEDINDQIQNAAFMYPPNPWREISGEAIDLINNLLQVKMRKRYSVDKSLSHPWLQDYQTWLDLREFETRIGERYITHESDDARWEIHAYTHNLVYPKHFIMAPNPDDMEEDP

Aurora kinase B = Aurora kinase B (Homo sapiens, UniProt Q96GD4)
[18] = biological target: T3, Tyrosine-protein kinase receptor TYRO3 (Homo sapiens, UniProt Q06418);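 note: TYRO3 value obtained as one member of a kinome-wide profiling panel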
T3 sequence (Q06418 whole entry): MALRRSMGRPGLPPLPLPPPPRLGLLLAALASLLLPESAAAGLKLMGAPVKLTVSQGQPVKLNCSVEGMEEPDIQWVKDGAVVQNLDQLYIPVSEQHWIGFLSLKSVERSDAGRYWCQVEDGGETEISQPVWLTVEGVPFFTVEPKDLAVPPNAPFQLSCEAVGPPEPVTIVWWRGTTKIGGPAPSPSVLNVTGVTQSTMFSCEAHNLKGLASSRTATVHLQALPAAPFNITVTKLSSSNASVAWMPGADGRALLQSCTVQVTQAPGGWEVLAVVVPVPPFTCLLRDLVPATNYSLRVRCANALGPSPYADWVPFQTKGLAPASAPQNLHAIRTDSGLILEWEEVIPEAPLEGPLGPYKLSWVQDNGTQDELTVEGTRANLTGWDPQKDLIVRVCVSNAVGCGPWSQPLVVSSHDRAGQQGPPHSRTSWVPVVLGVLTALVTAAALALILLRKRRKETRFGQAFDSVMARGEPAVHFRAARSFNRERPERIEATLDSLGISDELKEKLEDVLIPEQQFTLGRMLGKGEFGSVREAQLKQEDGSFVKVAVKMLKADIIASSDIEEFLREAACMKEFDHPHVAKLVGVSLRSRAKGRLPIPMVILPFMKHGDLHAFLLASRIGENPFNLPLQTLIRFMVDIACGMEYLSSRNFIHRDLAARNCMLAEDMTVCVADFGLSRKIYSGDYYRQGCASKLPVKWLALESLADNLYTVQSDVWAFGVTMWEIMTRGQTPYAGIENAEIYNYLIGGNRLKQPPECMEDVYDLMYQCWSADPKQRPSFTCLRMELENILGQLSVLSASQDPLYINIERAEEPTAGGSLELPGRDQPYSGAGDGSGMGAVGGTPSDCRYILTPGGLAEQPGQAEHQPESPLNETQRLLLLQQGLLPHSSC

[19] = biological target: Fibroblast growth factor receptor 1 (Homo sapiens, UniProt P11362)
[20] = biological target: Cyclin-dependent kinase 8 (Homo sapiens, UniProt P49336); experiment: Navigating the Kinome. Panel member name: CDK8
[21] = biological target: Serine/threonine-protein kinase TBK1 (Homo sapiens, UniProt Q9UHD2); experiment: Navigating the Kinome. Panel member name: TBK1
[22] = biological target: Dual specificity tyrosine-phosphorylation-regulated kinase 1B (Homo sapiens, UniProt Q9Y463); experiment: Navigating the Kinome. Panel member name: DYRK1B
Chain of Dual specificity tyrosine-phosphorylation-regulated kinase 1B (Q9Y463 whole entry, canonical isoform): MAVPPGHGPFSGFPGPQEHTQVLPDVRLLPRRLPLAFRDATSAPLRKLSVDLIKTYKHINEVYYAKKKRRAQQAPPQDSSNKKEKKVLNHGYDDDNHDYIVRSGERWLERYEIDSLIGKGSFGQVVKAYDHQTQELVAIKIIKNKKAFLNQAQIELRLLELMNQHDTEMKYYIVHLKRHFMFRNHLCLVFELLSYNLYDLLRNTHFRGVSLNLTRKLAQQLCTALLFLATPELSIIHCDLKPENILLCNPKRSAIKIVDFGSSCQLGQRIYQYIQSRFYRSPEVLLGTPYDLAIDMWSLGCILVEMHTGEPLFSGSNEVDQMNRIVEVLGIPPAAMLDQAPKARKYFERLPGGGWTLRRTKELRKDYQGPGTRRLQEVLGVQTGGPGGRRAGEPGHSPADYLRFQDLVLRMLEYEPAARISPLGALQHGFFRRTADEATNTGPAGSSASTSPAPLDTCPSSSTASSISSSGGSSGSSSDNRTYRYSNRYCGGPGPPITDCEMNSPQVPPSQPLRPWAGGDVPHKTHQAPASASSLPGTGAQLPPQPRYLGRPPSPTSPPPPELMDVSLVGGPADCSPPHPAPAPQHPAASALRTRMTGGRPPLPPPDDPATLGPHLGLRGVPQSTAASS

[23] = biological target: Casein kinase I isoform alpha (Homo sapiens, UniProt P48729)
[24] = biological target: Vascular endothelial growth factor receptor 1 (Homo sapiens, UniProt P17948);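 note: measured within a kinome-wide profiling panel, FLT1 as the panel member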
Chain of Vascular endothelial growth factor receptor 1 (P17948 whole entry): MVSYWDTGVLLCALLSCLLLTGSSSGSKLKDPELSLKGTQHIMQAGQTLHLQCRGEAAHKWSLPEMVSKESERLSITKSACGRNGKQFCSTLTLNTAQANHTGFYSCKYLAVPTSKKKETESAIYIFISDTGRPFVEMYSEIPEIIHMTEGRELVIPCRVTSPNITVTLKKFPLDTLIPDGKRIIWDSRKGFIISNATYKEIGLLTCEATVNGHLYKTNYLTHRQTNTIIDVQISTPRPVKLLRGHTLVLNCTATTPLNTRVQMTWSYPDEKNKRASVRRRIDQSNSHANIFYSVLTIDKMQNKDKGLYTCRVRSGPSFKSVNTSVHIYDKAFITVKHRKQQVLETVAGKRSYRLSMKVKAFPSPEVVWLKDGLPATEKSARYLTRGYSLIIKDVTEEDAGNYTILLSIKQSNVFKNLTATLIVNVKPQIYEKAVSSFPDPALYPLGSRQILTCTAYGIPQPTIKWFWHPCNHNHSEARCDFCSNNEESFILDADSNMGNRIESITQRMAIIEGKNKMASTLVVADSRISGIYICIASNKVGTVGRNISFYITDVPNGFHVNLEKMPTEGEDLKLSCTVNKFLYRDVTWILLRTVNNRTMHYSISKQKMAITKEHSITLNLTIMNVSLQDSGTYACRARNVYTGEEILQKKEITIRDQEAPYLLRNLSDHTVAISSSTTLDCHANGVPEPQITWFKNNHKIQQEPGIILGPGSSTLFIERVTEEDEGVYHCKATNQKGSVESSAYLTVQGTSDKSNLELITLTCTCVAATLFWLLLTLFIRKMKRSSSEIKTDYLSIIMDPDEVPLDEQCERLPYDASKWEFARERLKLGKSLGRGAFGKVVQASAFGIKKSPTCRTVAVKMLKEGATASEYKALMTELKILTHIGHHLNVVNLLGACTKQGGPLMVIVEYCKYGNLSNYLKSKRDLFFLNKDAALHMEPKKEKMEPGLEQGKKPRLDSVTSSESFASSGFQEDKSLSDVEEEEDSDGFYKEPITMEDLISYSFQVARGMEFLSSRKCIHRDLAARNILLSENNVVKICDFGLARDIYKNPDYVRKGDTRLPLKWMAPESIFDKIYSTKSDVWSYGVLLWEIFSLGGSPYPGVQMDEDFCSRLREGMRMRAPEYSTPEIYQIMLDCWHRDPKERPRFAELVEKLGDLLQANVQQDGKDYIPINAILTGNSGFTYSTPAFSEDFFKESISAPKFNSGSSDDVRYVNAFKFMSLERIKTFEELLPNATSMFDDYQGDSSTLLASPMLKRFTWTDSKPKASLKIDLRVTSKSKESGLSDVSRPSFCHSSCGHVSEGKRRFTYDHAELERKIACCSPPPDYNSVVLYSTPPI

[25] = biological target: Neuropeptides B/W receptor type 1 (Homo sapiens, UniProt P48145); experiment: GPR7 antagonist potency, late-stage follow-up, cell-based, fluorescence, dose response, set 5 (AID 588566)
Chain of Neuropeptides B/W receptor type 1 (P48145 whole entry): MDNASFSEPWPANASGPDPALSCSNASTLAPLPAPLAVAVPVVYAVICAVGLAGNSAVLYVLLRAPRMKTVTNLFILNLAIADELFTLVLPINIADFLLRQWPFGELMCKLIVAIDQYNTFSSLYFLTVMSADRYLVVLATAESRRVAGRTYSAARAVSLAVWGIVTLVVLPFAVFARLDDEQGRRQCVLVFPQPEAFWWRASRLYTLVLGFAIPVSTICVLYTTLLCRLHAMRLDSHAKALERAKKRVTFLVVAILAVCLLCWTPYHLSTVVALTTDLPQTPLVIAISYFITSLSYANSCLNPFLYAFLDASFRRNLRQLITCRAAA

[26] = biological target: Melanin-concentrating hormone receptor 1 (Homo sapiens, UniProt Q99705); experiment: Late-stage fluorescence-based counterscreen for antagonists of the G-protein coupled receptor 7 (GPR7): cell-based dose response assay to identify antagonists of the melanin-concentrating hormone receptor 1 (MCHR1) Set 5.

SMILES: COc1cc(OC)cc(-c2sc3ccc(OC)cc3c2-c2ccc(OCCN3CCOCC3)cc2)c1
EC50 [1]: 13.7 µM (active)
EC50 [2]: 11.3 µM (active)
EC50 [3]: 38.5 µM (active)

Ki [4]: 50.1 µM (active)
Ki (LIM domain kinase 1): 20 µM (active)
Ki [5]: 39.8 µM (active)
Ki [6]: 31.6 µM (active)
Ki [7]: 31.6 µM (active)
Ki [8]: 25.1 µM (active)
Ki [9]: 63.1 µM (active)
Ki [10]: 25.1 µM (active)
Ki [11]: 79.4 µM (active)
Ki [12]: 79.4 µM (active)
Ki [13]: 12.6 µM (active)
Ki [15]: 31.6 µM (active)
Ki [16]: 63.1 µM (active)
Ki [17]: 100 µM (active)
Ki (Aurora kinase B): 31.6 µM (active)
Ki [18]: 63.1 µM (active)
Ki [19]: 100 µM (active)
Ki [20]: 100 µM (active)
Ki [21]: 50.1 µM (active)
Ki [22]: 39.8 µM (active)
Ki [23]: 20 µM (active)
Ki [24]: 25.1 µM (active)
SMILES: Nc1ncnc2c1C(=O)NCCN2
Ki [14]: 15.8 µM (active)

IC50 [25]: 3.3 µM (active)
IC50 [26]: 17.8 µM (inactive)
SMILES: O=c1c(Cl)c(Oc2ccc3c(c2)OCO3)cnn1Cc1cccc2ccccc12
